According to PubChem BioAssay (NCI):
Several values for one entry are separate records, joined by “and”; a condition that tells them apart may be missing. Equal values may be shown once.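 Cultured in 96-well plates, cells were exposed to test compound for 48 hours across five concentrations. GI50 = concentration required for 50% inhibition of growth. At the TGI there is no net growth.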

Key:
Test in all cases: NCI tumour cell line growth inhibition, 48 h
NCI-H522 lung = system: NCI-H522 lung
UACC-257 melanoma = system: UACC-257 melanoma
SK-OV-3 ovarian = system: SK-OV-3 ovarian
IGROV1 ovarian = system: IGROV1 ovarian
SN12C renal = system: SN12C renal
SR leukemia = system: SR leukemia
M14 melanoma = system: M14 melanoma
K-562 leukemia = system: K-562 leukemia
SNB-19 CNS = system: SNB-19 CNS
HCT-15 colon = system: HCT-15 colon

Structure (SMILES) | GI50 (NCI-H522 lung) | TGI (NCI-H522 lung) | GI50 (UACC-257 melanoma) | TGI (UACC-257 melanoma) | GI50 (SK-OV-3 ovarian) | TGI (SK-OV-3 ovarian) | GI50 (IGROV1 ovarian) | TGI (IGROV1 ovarian) | GI50 (SN12C renal) | TGI (SN12C renal) | GI50 (SR leukemia) | TGI (SR leukemia) | GI50 (M14 melanoma) | TGI (M14 melanoma) | GI50 (K-562 leukemia) | TGI (K-562 leukemia) | GI50 (SNB-19 CNS) | TGI (SNB-19 CNS) | GI50 (HCT-15 colon) | TGI (HCT-15 colon)
COc1ccc(/C(C#N)=C/c2cc(OC)c(OC)c(OC)c2)cc1 | 15.7 µM | 56.3 µM | 31 µM | > 100 µM | 35.8 µM | > 100 µM | 29.2 µM | > 100 µM | 27.2 µM | > 100 µM | 3.36 µM | 41.5 µM | 19.3 µM | > 100 µM | 4.64 µM | 31.3 µM | 28 µM | > 100 µM | 7.96 µM | > 100 µM
COC1CCC(OC)C(C2(C3CC(OC)CCC3OC)OC(=O)c3ccccc32)C1 (stereo not given) | – | 52.1 µM | – | > 100 µM | – | > 100 µM | – | > 100 µM | – | > 100 µM | – | > 100 µM | – | > 100 µM | – | > 100 µM | – | > 100 µM | – | > 100 µM
CC(=O)OC12c3ccccc3-c3ccccc3C1C(C(=O)O)C2C(=O)O (stereo not given) | – | > 10 µM | – | > 10 µM | – | > 10 µM | – | > 10 µM | – | > 10 µM | – | > 10 µM | – | > 10 µM | – | > 10 µM | – | > 10 µM | – | > 10 µM
Cn1nc(C(F)(F)F)c(-c2cc(C(F)(F)F)cc(C(F)(F)F)c2)c1-c1ccc(OCc2ccc(Cl)cc2)cc1O | 1.94 µM | 9.16 µM | 2.07 µM | 6.11 µM | 2.82 µM | 10.1 µM | 2.71 µM | 12.5 µM | 1.96 µM | 10.3 µM | 1.79 µM | 7.51 µM | 2.07 µM | 5.27 µM | 0.62 µM | 10.1 µM | 2.78 µM | 14.8 µM | 2.14 µM | 10.7 µM
C[C@H]1CNC(=O)c2cnn3ccc(nc23)N[C@H](C)c2cc(F)ccc2O1 | 2.43 µM | 24.4 µM | 6.45 µM | > 94 µM | 0.641 µM | 10 µM | 0.292 µM | 1.92 µM | 0.815 µM | 12.8 µM | 0.05 µM | 19.2 µM | 1.78 µM | > 100 µM | 3.64 µM | > 100 µM | 2.17 µM | 47.4 µM | 2.05 µM | 13.4 µM
NC(N)=NC(N)=NCCCc1ccco1 | > 500 µM | > 500 µM | 19.2 µM | 101 µM | 142 µM | > 500 µM | > 500 µM | > 500 µM | 87.2 µM | 253 µM | 19.6 µM | 89.8 µM | 53.6 µM | 123 µM | 24.5 µM | 238 µM | > 500 µM | > 500 µM | > 500 µM | > 500 µM
COC(=O)Nc1nc2ccc(C(=O)c3ccccc3)cc2[nH]1 | 0.317 µM and 0.323 µM | 2.36 µM | 38 µM | > 100 µM | 0.435 µM and 0.467 µM | – | 1.01 µM and 0.565 µM | > 100 µM and 52.9 µM | 1.09 µM and 0.62 µM | > 100 µM | 0.168 µM and 0.0444 µM | 28.1 µM and > 100 µM | 0.427 µM and 0.257 µM | 6.6 µM | 0.391 µM and 0.142 µM | > 56.3 µM | 0.587 µM and 0.471 µM | > 100 µM | 0.451 µM and 0.21 µM | > 100 µM
O=C(c1ccco1)c1c(C(F)(F)F)n([O-])c2cc(C(F)(F)F)ccc2[n+]1=O | 0.54 µM | 1.17 µM | 1.55 µM | 3.27 µM | 1.65 µM | 3.13 µM | 0.822 µM | 2.52 µM | 1.29 µM | 3.45 µM | 0.0394 µM | 0.265 µM | 1.62 µM | 3.05 µM | 0.172 µM | 0.379 µM | 1.47 µM | 2.99 µM | 0.404 µM | 0.842 µM
CO[C@H]1C[C@](C)(O)Cc2cc3c(c(O)c21)C(=O)c1c(O)cc2c(c1C3=O)O[C@@H]1O[C@@]2(C)[C@H](O)[C@@H](N(C)C)[C@@H]1O | 1.42 µM | 3.67 µM and 8.17 µM | 3.78 µM | 7.55 µM and 31.6 µM | 0.749 µM | 2.45 µM and 3.67 µM | – | 9.16 µM and 18.7 µM | 0.56 µM | 2.57 µM and 3.48 µM | – | 0.647 µM | – | 2.58 µM and 4.49 µM | – | 6.65 µM and 15.7 µM | 0.578 µM | 5.95 µM and 7.5 µM | – | 3.4 µM and 10.9 µM
COC(=O)C(=O)C(C(=O)C(=O)Nc1ccccc1OC)c1nc2ccc([N+](=O)[O-])cc2[nH]c1=O (stereo not given) | – | > 100 µM | – | > 100 µM | – | > 100 µM | – | > 100 µM | – | > 100 µM | – | > 100 µM | – | > 100 µM | – | > 100 µM | – | > 100 µM | – | > 100 µM
COC(=O)c1c2c(c(C)[n+]([O-])c1C)C(=O)C=C(NCc1cccc(Cl)c1)C2=O | 0.261 µM | 1.7 µM | 0.234 µM | 0.725 µM | 1.92 µM | 5.14 µM | 0.221 µM | 1.09 µM | 0.298 µM | 1.02 µM | 0.35 µM | 6.64 µM | 0.28 µM | 1.56 µM | 0.085 µM | > 30.2 µM | 1.01 µM | 2.18 µM | 0.205 µM | 1.52 µM
O=C(Nc1ccc(F)cc1)Nc1ccc(Br)c(C(F)(F)F)c1 | 1.56 µM | 5.87 µM | 2.73 µM | 7.51 µM | 2.16 µM | 6.27 µM | 3.58 µM | 15.2 µM | 2.91 µM | 11.5 µM | 1.88 µM | 6.49 µM | 2.29 µM | 7.41 µM | 2.13 µM | 11.5 µM | 3.42 µM | 15.6 µM | 2.35 µM | 10.8 µM
CC(C)c1cccc(O)c(=O)c1 | 5.16 µg/mL | 28 µg/mL and > 73.1 µM | 2.33 µg/mL | 23 µg/mL and 46.6 µM | – | > 100 µM | 1.6 µg/mL | > 75 µg/mL and > 100 µM | 4.26 µg/mL | > 75 µg/mL and > 100 µM | 0.496 µg/mL | – | 75 µg/mL | > 75 µg/mL and > 57.5 µM | 2.38 µg/mL | – | 1.2 µg/mL | – | 0.997 µg/mL | > 75 µg/mL and > 100 µM
